Publication PMC6724035, “Evaluation of Tumor-Targeting Properties of an Antagonistic Bombesin Analogue RM26 Conjugated with a Non-Residualizing Radioiodine Label Comparison with a Radiometal-Labelled Counterpart” (Pharmaceutics, 2019)
Where a SMILES comes first, the peptide text is derived from it. [ ]: non-standard residue; d: D form. Tyr(3-I) = N[C@@H](Cc1ccc(O)c(I)c1)C(=O)O; Sta = CC(C)C[C@H](N)[C@@H](O)CC(=O)O; AEEA = NCCOCCOCC(=O)O

Assay: in vivo
Settings: mouse, iv; for tissue to tissue ratio at 0.5 h / tissue to tissue ratio at 3 h / tissue to tissue ratio at 24 h: female, BALB/c nu/nu, total radioactivity; for tissue uptake at 0.5 h / tissue uptake at 3 h / tissue uptake at 24 h: 40 pmol, 40 pmol i.v.; for tissue uptake at 0.5 h: 0.5 h after injection; for tissue uptake at 3 h: 3 h after injection; for tissue uptake at 24 h: 24 h after injection
Protocol: Animal studies were planned and performed in agreement with EU Directive 2010/63/EU for animal experiments and Swedish national legislation concerning protection of laboratory animals. Experiments were approved by the Ethics Committee for Animal Research in Uppsala (C4/16, 26 February 2016). Biodistribution studies were performed in female BALB/C nu/nu mice purchased from Scanbur A/S (Karlslunde, Denmark). GRPR-expressing xenografts were established by subcutaneous injection of 5 × 10^6 PC-3 cells/mouse in the right hind leg of mice 3 weeks before the experiment. The animals were randomized into groups of four mice for each data point.
Mice were euthanized followed by dislocation of their neck at 0.5 h after injection and blood samples were collected by heart puncture. At 3 and 24 h after injection, mice were euthanized by an intraperitoneal injection of anaesthetic solution (20 µL of solution per gram of body weight: Ketalar, 10 mg/mL; Rompun, 1 mg/mL) followed by heart puncture. Salivary glands, thyroid, lung, liver, spleen, pancreas, stomach, small intestine, kidneys, tumour, muscle, and bone were collected and weighed. The organ radioactivity was measured in a gamma-counter and uptake values of organs were calculated as percentage of injected dose per gram tissue (% ID/g). To test the in vivo binding specificity, a group of mice was co-injected with 7.5 nmol of non-labelled peptide (NOTA-PEG4-RM26), and biodistribution was measured at 0.5 h after injection.

[1] = small intestine, small intestine

Q: For CC(C)C[C@H](NC(=O)C[C@H](O)[C@H](CC(C)C)NC(=O)[C@H](Cc1c[nH]cn1)NC(=O)CNC(=O)[C@@H](NC(=O)[C@H](C)NC(=O)[C@H](Cc1c[nH]c2ccccc12)NC(=O)[C@H](CCC(N)=O)NC(=O)[C@@H](Cc1ccccc1)NC(=O)COCCOCCNC(=O)[C@@H](N)Cc1ccc(O)c(I)c1)C(C)C)C(N)=O [[^125I]I-Tyr-PEG2-RM26] (H-[Tyr(3-I)][AEEA][dF]QWAVGH[Sta]L-NH2), which tissue to tissue ratio at 0.5 h (tumour and bone) is on record?
A: 1.9 ± 0.2

Q: What about the tissue to tissue ratio at 3 h (tumour and bone) of the same compound?
A: 1.9 ± 0.3

Q: And the tissue to tissue ratio at 0.5 h (tumour and kidney)?
A: 0.5

Q: What about the tissue to tissue ratio at 3 h (tumour and kidney) of the same compound?
A: 0.3 ± 0.1

Q: And the tissue to tissue ratio at 24 h (tumour and kidney)?
A: 0.1

Q: And the tissue to tissue ratio at 0.5 h (tumour and liver)?
A: 0.8 ± 0.2

Q: And the tissue to tissue ratio at 3 h (tumour and liver)?
A: 0.8 ± 0.2

Q: And the tissue to tissue ratio at 24 h (tumour and liver)?
A: 0.6 ± 0.5

Q: What about the tissue to tissue ratio at 0.5 h (tumour and lung) of the same compound?
A: 0.8

Q: What about the tissue to tissue ratio at 3 h (tumour and lung) of the same compound?
A: 0.6 ± 0.1

Q: And the tissue to tissue ratio at 24 h (tumour and lung)?
A: 1 ± 0.6

Q: And the tissue to tissue ratio at 0.5 h (tumour and muscle)?
A: 3.6 ± 0.4

Q: And the tissue to tissue ratio at 3 h (tumour and muscle)?
A: 3.7 ± 0.6

Q: What about the tissue to tissue ratio at 0.5 h (tumour and pancreas) of the same compound?
A: 0.7 ± 0.1

Q: And the tissue to tissue ratio at 3 h (tumour and pancreas)?
A: 0.9 ± 0.1

Q: What about the tissue to tissue ratio at 0.5 h (tumour and salivary gland) of the same compound?
A: 1.3 ± 0.6

Q: What about the tissue to tissue ratio at 3 h (tumour and salivary gland) of the same compound?
A: 1.2 ± 0.3

Q: What about the tissue to tissue ratio at 0.5 h (tumour and small intestine) of the same compound?
A: 1.1 ± 0.6

Q: And the tissue to tissue ratio at 3 h (tumour and small intestine)?
A: 1.3 ± 0.4

Q: What about the tissue to tissue ratio at 0.5 h (tumour and spleen) of the same compound?
A: 1.3 ± 0.2

Q: And the tissue to tissue ratio at 3 h (tumour and spleen)?
A: 1.1 ± 0.1

Q: What about the tissue to tissue ratio at 0.5 h (tumour and stomach) of the same compound?
A: 0.6 ± 0.2

Q: And the tissue to tissue ratio at 3 h (tumour and stomach)?
A: 0.5 ± 0.1

Q: And the tissue to tissue ratio at 0.5 h (tumour and thyroid)?
A: 1 ± 0.5

Q: What about the tissue to tissue ratio at 3 h (tumour and thyroid) of the same compound?
A: 1.2 ± 0.6

Q: And the tissue to tissue ratio at 0.5 h (tumour and whole blood)?
A: 0.7

Q: What about the tissue to tissue ratio at 3 h (tumour and whole blood) of the same compound?
A: 0.8 ± 0.1

Q: And the tissue to tissue ratio at 24 h (tumour and whole blood)?
A: 6 ± 4

Q: What about the tissue uptake at 0.5 h (blood, blood) of the same compound?
A: 10.2 ± 1.5 %ID/g

Q: What about the tissue uptake at 3 h (blood, blood) of the same compound?
A: 2.9 ± 1.5 %ID/g

Q: What about the tissue uptake at 24 h (blood, blood) of the same compound?
A: 0.02 %ID/g

Q: What about the tissue uptake at 0.5 h (bone, bone) of the same compound?
A: 3.8 ± 0.8 %ID/g

Q: And the tissue uptake at 3 h (bone, bone)?
A: 1.1 ± 0.5 %ID/g

Q: And the tissue uptake at 0.5 h (kidney, kidney)?
A: 13.2 ± 1.8 %ID/g

Q: What about the tissue uptake at 3 h (kidney, kidney) of the same compound?
A: 6.1 ± 1.1 %ID/g

Q: And the tissue uptake at 24 h (kidney, kidney)?
A: 1.5 ± 0.3 %ID/g

Q: What about the tissue uptake at 0.5 h (liver, liver) of the same compound?
A: 8.9 ± 3.1 %ID/g

Q: And the tissue uptake at 3 h (liver, liver)?
A: 2.6 ± 1.1 %ID/g

Q: What about the tissue uptake at 24 h (liver, liver) of the same compound?
A: 0.2 %ID/g

Q: And the tissue uptake at 0.5 h (lung, lung)?
A: 9.1 ± 1.2 %ID/g

Q: What about the tissue uptake at 3 h (lung, lung) of the same compound?
A: 3.5 ± 1.4 %ID/g

Q: What about the tissue uptake at 24 h (lung, lung) of the same compound?
A: 0.2 ± 0.1 %ID/g

Q: And the tissue uptake at 0.5 h (muscle, muscle)?
A: 2 %ID/g

Q: And the tissue uptake at 3 h (muscle, muscle)?
A: 0.6 ± 0.3 %ID/g

Q: What about the tissue uptake at 0.5 h (pancreas, pancreas) of the same compound?
A: 10.1 ± 1.2 %ID/g

Q: What about the tissue uptake at 3 h (pancreas, pancreas) of the same compound?
A: 2.3 ± 0.6 %ID/g

Q: And the tissue uptake at 0.5 h (salivary gland, salivary gland)?
A: 6.6 ± 3.7 %ID/g

Q: What about the tissue uptake at 3 h (salivary gland, salivary gland) of the same compound?
A: 2 ± 1.2 %ID/g

Q: What about the tissue uptake at 0.5 h [1] of the same compound?
A: 7.3 ± 3 %ID/g

Q: What about the tissue uptake at 3 h [1] of the same compound?
A: 1.8 ± 0.7 %ID/g

Q: And the tissue uptake at 0.5 h (spleen, spleen)?
A: 5.4 ± 0.8 %ID/g

Q: And the tissue uptake at 3 h (spleen, spleen)?
A: 2 ± 0.8 %ID/g

Q: And the tissue uptake at 0.5 h (stomach, stomach)?
A: 13.2 ± 7.2 %ID/g

Q: What about the tissue uptake at 3 h (stomach, stomach) of the same compound?
A: 4.6 ± 2.7 %ID/g

Q: What about the tissue uptake at 24 h (stomach, stomach) of the same compound?
A: 0.1 %ID/g

Q: And the tissue uptake at 0.5 h (thyroid, thyroid)?
A: 8.2 ± 3.7 %ID/g

Q: What about the tissue uptake at 3 h (thyroid, thyroid) of the same compound?
A: 2.2 ± 1.6 %ID/g

Q: What about the tissue uptake at 0.5 h (tumour, tumour, non-blocked) of the same compound?
A: 7 ± 0.8 %ID/g

Q: And the tissue uptake at 3 h (tumour, tumour)?
A: 2.1 ± 0.8 %ID/g
